Experimental findings from US7727986B2, “Pesticide pyrimidinyloxy substituted phenylamidine derivatives” (Bayer CropScience AG, priority 2005, dated 2010) are described below.

A short description of one series: logP by HPLC on reversed-phase column (C 18), EEC Directive 79/831 Annex V.A8. It counts as physicochemical. The settings on record: HPLC, 0.1% aqueous formic acid and acetonitrile, 40° C.; pH 2.3. As to the method: Temperature: 40° C.; Mobile phases: 0.1% aqueous formic acid and acetonitrile; linear gradient from 10% acetonitrile to 90% acetonitrile.
Molecule `CCN(C)C=Nc1cc(C)c(Oc2ccnc(N(C)c3ccccc3)n2)cc1C` [Compound 1, N′-{2,5-dimethyl-4-[2-(methyl-phenyl-amino)-pyrimidin-4-yloxy]-phenyl}-N-ethyl-N-methyl-formamidine] registered a logPa of 1.61.
On to `CCN(C)C=Nc1cc(C)c(Oc2ccnc(Oc3cccc(Cl)c3C)n2)cc1C` [Compound 2, N′-{4-[2-(3-chloro-2-methyl-phenoxy)-pyrimidin-4-yloxy]-2,5-dimethyl-phenyl}-N-ethyl-N-methyl-formamidine], for which the logPa is given as 2.08.
Still for that read-out and setting: with `CCN(C)C=Nc1cc(C)c(Oc2cc(C)nc(Cl)n2)cc1C` [Compound 3, N′-{4-[(2-chloro-6-methylpyrimidin-4-yl)oxy]-2,5-dimethylphenyl}-N-ethyl-N-methylimido-formamide] the figure was 1.45; with `CCN(C)C=Nc1cc(C)c(Oc2ncnc(Oc3cccc(Cl)c3C)c2C)cc1C` [Compound 8], 2.6; with `CCN(C)C=Nc1cc(C)c(Oc2ccnc(N(C)CC)n2)cc1C` [Compound 10], 0.82.
The same measure, in the same setting: with `CCN(C)C=Nc1cc(C)c(Oc2ccnc(OC)n2)cc1C` [Compound 11] the figure was 1.16.
`CCCN(C)C=Nc1cc(C)c(Oc2ccnc(OC)n2)cc1C` [Compound 12] displayed a logPa of 1.38.
Still for that read-out and setting: with `CCCN(C)c1nccc(Oc2cc(C)c(N=CN(C)CC)cc2C)n1` [Compound 13] the figure was 1.25.
The same measure, in the same setting: the value for `CCN(C)C=Nc1cc(C)c(Oc2cc(Cl)ncn2)cc1C` [Compound 15] was 1.4; that for `CCCN(C)C=Nc1cc(C)c(Oc2cc(Cl)ncn2)cc1C` [Compound 16] was 1.56; that for `Cc1cc(Oc2cc(Cl)ncn2)c(C)cc1N=CN(C)C(C)C` [Compound 17] was 1.54.
The same measure, in the same setting: the value for `CCN(C)C=Nc1cc(C)c(Oc2ccnc(N3CCOCC3)n2)cc1C` [Compound 19] was 1.3; that for `CCCN(C)C=Nc1cc(C)c(Oc2ccnc(N3CCOCC3)n2)cc1C` [Compound 20] was 3.13; that for `CCN(C)C=Nc1cc(C)c(Oc2ccnc(N3CCCCC3)n2)cc1C` [Compound 21] was 1.4.
As for `CCCN(C)C=Nc1cc(C)c(Oc2ccnc(N3CCCCC3)n2)cc1C` [Compound 22], the logPa amounted to 1.58.
The same measure, in the same setting: with `CCN(C)C=Nc1cc(C)c(Oc2ccnc(Cl)n2)cc1C` [Compound 23] the figure was 1.3.
As to `CCCN(C)C=Nc1cc(C)c(Oc2ccnc(Cl)n2)cc1C` [Compound 24], the logPa is on record as 1.44.
In turn, `Cc1cc(Oc2ccnc(Cl)n2)c(C)cc1N=CN(C)C(C)C` [Compound 25] returned a logPa of 1.4.
The same measure, in the same setting: with `COc1nccc(Oc2cc(C)c(N=CN(C)C(C)C)cc2C)n1` [Compound 26] the figure was 1.4; with `CCN(C)C=Nc1cc(C)c(Oc2nc(Cl)ncc2C)cc1C` [Compound 27], 1.42; with `CCCN(C)C=Nc1cc(C)c(Oc2nc(Cl)ncc2C)cc1C` [Compound 28], 1.68.
On the same count and under the same terms, with `Cc1cc(Oc2ccnc(Nc3cccc(Cl)c3)n2)c(C)cc1N=CN(C)C(C)C` [Compound 29] the figure was 2.04.
Still for that read-out and setting: with `CCN(C)C=Nc1cc(C)c(Oc2ccnc(Nc3cccc(Cl)c3)n2)cc1C` [Compound 30] the figure was 1.94; with `Cc1cc(Oc2ccnc(N3C=NCC3)n2)c(C)cc1N=CN(C)C(C)C` [Compound 31], 1.01.
`CCCN(C)C=Nc1cc(C)c(Oc2cc(C)nc(Cl)n2)cc1C` [Compound 32] returned a logPa of 1.62.
The same measure, in the same setting: the value for `Cc1cc(Oc2ccnc(N3CCOCC3)n2)c(C)cc1N=CN(C)C(C)C` [Compound 33] was 1.46; that for `Cc1cc(Oc2ccnc(N3CCCCC3)n2)c(C)cc1N=CN(C)C(C)C` [Compound 34] was 1.56; that for `CCN(C)C=Nc1cc(C)c(Oc2ccnc(Oc3ccccc3)n2)cc1C` [Compound 35] was 1.68.
Still for that read-out and setting: with `CCCN(C)C=Nc1cc(C)c(Oc2ccnc(N(C)C)n2)cc1C` [Compound 38] the figure was 0.89; with `CCN(C)C=Nc1cc(C)c(Oc2cc(OC)ncn2)cc1C` [Compound 39], 1.32.
On the same count and under the same terms, the value for `CCCN(C)C=Nc1cc(C)c(Oc2cc(OC)ncn2)cc1C` [Compound 40] was 1.47.
With `CCCN(C)C=Nc1cc(C)c(Oc2cc(N(C)CC)ncn2)cc1C` [Compound 42], the logPa was 1.6.
In the case of `CCN(C)C=Nc1cc(C)c(Oc2cc(N(C)CC)ncn2)cc1C` [Compound 43], the logPa came to 1.46.
The same measure, in the same setting: the value for `CCOc1nccc(Oc2cc(C)c(N=CN(C)C(C)C)cc2C)n1` [Compound 44] was 1.62.
The same measure, in the same setting: the value for `CCN(C)c1cc(Oc2cc(C)c(N=CN(C)C(C)C)cc2C)ncn1` [Compound 45] was 1.56; that for `Cc1cc(Oc2nc(Cl)ncc2C)c(C)cc1N=CN(C)C(C)C` [Compound 46] was 1.62.
In the case of `CCOc1nccc(Oc2cc(C)c(N=CN(C)CC)cc2C)n1` [Compound 47], the logPa is on record as 1.47.
Same read-out and setting: with `COc1cc(Oc2cc(C)c(N=CN(C)C(C)C)cc2C)ncn1` [Compound 48] the figure was 1.49.
The same measure, in the same setting: with `CCCN(C)c1cc(Oc2cc(C)c(N=CN(C)CC)cc2C)ncn1` [Compound 49] the figure was 1.74.
Regarding `CCCN(C)C=Nc1cc(C)c(Oc2ccnc(OCC)n2)cc1C` [Compound 50], the logPa was determined as 1.55.
In turn, `CCCN(C)C=Nc1cc(C)c(Oc2cc(N(C)CCC)ncn2)cc1C` [Compound 51] gave a logPa of 1.79.
The molecule `CCCN(C)C=Nc1cc(C)c(Oc2ccnc(Nc3cccc(Cl)c3)n2)cc1C` [Compound 52] registered a logPa of 2.06.
`CCCN(C)c1cc(Oc2cc(C)c(N=CN(C)C(C)C)cc2C)ncn1` [Compound 53] gave a logPa of 1.77.
Consider `CCN(C)C=Nc1cc(C)c(Oc2cc(Cl)nc(C(C)(C)C)n2)cc1C` [Compound 59], for which the logPa is listed as 2.61.
With `Cc1cc(Oc2cc(Cl)nc(C(C)(C)C)n2)c(C)cc1N=CN(C)C(C)C` [Compound 60], the logPa is on record as 2.8.
On the same count and under the same terms, the value for `Cc1cc(Oc2ccnc(N(C)c3ccccc3)n2)c(C)cc1N=CN1CCCCC1` [Compound 61] was 1.84.
`Cc1cc(Oc2ccnc(Oc3ccccc3)n2)c(C)cc1N=CN(C)C` [Compound 63]: the logPa was found to be 1.65.
Still for that read-out and setting: with `CCN(C)C=Nc1cc(C)c(Oc2nc(Cl)ncc2Cl)cc1C` [Compound 64] the figure was 1.67; with `Cc1cc(Oc2ccnc(Oc3ccccc3)n2)c(C)cc1N=CN(C)C(C)C` [Compound 66], 1.81.
The same measure, in the same setting: with `CCCN(C)C=Nc1cc(C)c(Oc2ccnc(Oc3cccc(Cl)c3)n2)cc1C` [Compound 67] the figure was 2.14.
For `Cc1cc(Oc2ccnc(Oc3cccc(Cl)c3)n2)c(C)cc1N=CN(C)C(C)C` [Compound 68], the logPa came out at 2.12.
On to `CCN(C)C=Nc1cc(C)c(Oc2cc(Cl)nc(Cl)n2)cc1C` [Compound 69], for which the logPa is listed as 1.67.
On the same count and under the same terms, with `CCN(C)C=Nc1cc(C)c(Oc2ccnc(Oc3ccc(F)c(F)c3)n2)cc1C` [Compound 70] the figure was 1.93.
As for `CCN(C)C=Nc1cc(C)c(Oc2ccnc(Oc3ccc(OC)c(OC)c3)n2)cc1C` [Compound 71], the logPa amounted to 1.65.
On the same count and under the same terms, with `CCN(C)C=Nc1cc(C)c(Oc2ccnc(Oc3ccccc3)n2)cc1C` [Compound 72] the figure was 1.96.
For the molecule `CCN(C)C=Nc1cc(C)c(Oc2cc(C)nc(Oc3ccccc3)n2)cc1C` [Compound 73], the logPa is on record as 1.99.
On to `COc1ccc(Oc2nccc(Oc3cc(C)c(N=CN4CCCCC4)cc3C)n2)cc1OC` [Compound 74], for which the logPa was found to be 1.80.
Molecule `Cc1cc(Oc2cc(C)c(N=CN3CCCCC3)cc2C)nc(Oc2ccccc2)n1` [Compound 75] came in with a logPa of 2.09.
Still for that read-out and setting: the value for `Cc1cc(Oc2ccnc(Oc3ccccc3)n2)c(C)cc1N=CN1CCCCC1` [Compound 76] was 2.02; that for `CCN(C)C=Nc1cc(C)c(Oc2ccnc(Oc3ccc(C(C)(C)C)cc3)n2)cc1C` [Compound 77] was 2.65; that for `Cc1cc(Oc2ccnc(Oc3ccc(C(C)(C)C)cc3)n2)c(C)cc1N=CN1CCCCC1` [Compound 78] was 2.75.

The same series, now with this note: measured at pH = 4 (footnote a).
As to `CCN(C)C=Nc1cc(C)c(Oc2cc(C(C)(C)C)ncn2)cc1C` [Compound 4], the logPa is 1.98^a.
On the same count and under the same terms, the value for `CCN(C)C=Nc1cc(C)c(Oc2cc(Oc3cccc(C(F)(F)F)c3)ncn2)cc1C` [Compound 5] was 4.35^a; that for `CCN(C)C=Nc1cc(C)c(Oc2cc(-c3cccc(C(F)(F)F)c3)ncn2)cc1C` [Compound 6] was 3.19^a; that for `CCN(C)C=Nc1cc(C)c(Oc2cc(C(F)(F)F)ncn2)cc1C` [Compound 7] was 1.85^a.
The same measure, in the same setting: with `CCN(C)C=Nc1cc(C)c(Oc2cc(Oc3cccc(C(C)(C)C)c3)ncn2)cc1C` [Compound 9] the figure was 4.9^a.

Staying with this series, now noted: pH 2.3.
For the molecule `Cc1cc(Oc2ccnc(Cl)n2)c(C)cc1N` [4-(2-chloro-pyrimidin-4-yloxy)-2.5-dimethyl-phenylamine], the “log P (pH 2.3)” value is reported as 1.37.

The same series, now with this note: reversed-phase C18 HPLC column; pH 2.3; value in preparation example text; read-out: log P (pH 2.3).
`CCN(C)c1nc(Oc2cc(C)c(N)cc2C)ncc1Cl` [2-(4-amino-2,5-dimethylphenoxy)-5-chloro-N-ethyl-N-methylpyrimidin-4-amine]: the chromatographic logP is 1.88.
Take `Cc1cc(Oc2ccnc(Oc3cccc(Cl)c3C)n2)c(C)cc1N` [4-[2-(3-chloro-2-methyl-phenoxy)-pyrimidin-4-yloxy]-2,5-dimethyl-phenylamine]: the chromatographic logP was determined as 2.81.
The same measure, in the same setting: the value for `Cc1cc(Oc2cc(C)c(N)cc2C)nc(Cl)n1` [4-[(2-chloro-6-methylpyrimidin-4-yl)oxy]-2,5-dimethylaniline] was 1.62; that for `CCN(C)c1nc(Oc2cc(C)c([N+](=O)[O-])cc2C)ncc1Cl` [5-chloro-2-(2,5-dimethyl-4-nitrophenoxy)-N-ethyl-N-methylpyrimidin-4-amine] was 4.07.
In the case of `CCN(C)C=Nc1cc(C)c(Oc2ccnc(N(C)c3ccccc3)n2)cc1C` [Compound 1, N′-{2,5-dimethyl-4-[2-(methyl-phenyl-amino)-pyrimidin-4-yloxy]-phenyl}-N-ethyl-N-methyl-formamidine], the chromatographic logP turned out to be 1.61.
The same measure, in the same setting: with `CCN(C)C=Nc1cc(C)c(Oc2ccnc(Oc3cccc(Cl)c3C)n2)cc1C` [Compound 2, N′-{4-[2-(3-chloro-2-methyl-phenoxy)-pyrimidin-4-yloxy]-2,5-dimethyl-phenyl}-N-ethyl-N-methyl-formamidine] the figure was 2.08; with `CCN(C)C=Nc1cc(C)c(Oc2cc(C)nc(Cl)n2)cc1C` [Compound 3, N′-{4-[(2-chloro-6-methylpyrimidin-4-yl)oxy]-2,5-dimethylphenyl}-N-ethyl-N-methylimido-formamide], 1.45.
